Measurements as given in publication PMC9959748, “Nucleoside Analogs That Inhibit SARS-CoV-2 Replication by Blocking Interaction of Virus Polymerase with RNA” (International Journal of Molecular Sciences, 2023).
Read-outs that look alike come from different tables or passages of the source.

Experiments:
[1] = system: MDCK cells; conditions: concentration decreasing cell number by 50%
[2] = system: SARS-CoV-2 PIK35 strain; set-up: method as in PMID 35127150; conditions: Vero cells, read-out: EC50, inhibition of the reproduction of SARS-CoV-2; cited from earlier work
[3] = system: SARS-CoV-2; assay: microbe, parasite or virus in culture; assay type: cell-based, SARS-CoV-2 (hCoV-19/Russia/Moscow-PMVL-12/2020 strain); conditions: for log reduction at 20 µM: measured at 20 µM
[4] = system: Influenza A/California/7/2009 (H1N1)pdm09; assay: organism not typed; assay type: cell-based, Influenza virus; conditions: for IC50: read-out: IC50 ± SD Influenza Virus; for log reduction at 50 µM: read-out: Δlog10(TCID50) Influenza Virus; for SI (selectivity index), the ratio of CD50 to IC50: influenza virus
[5] = system: Vero E6 cells
[6] = system: SARS-CoV-2; assay: microbe, parasite or virus in culture; assay type: cell-based, SARS-CoV-2 (hCoV-19/Russia/Moscow-PMVL-12/2020 strain)
[7] = target: T1, SARS-CoV-2 RdRp (Severe acute respiratory syndrome coronavirus 2, UniProt P0DTD1); assay: Electrophoretic mobility shift assay of RNA binding by RdRp; conditions: 1 mM inhibitor incubated with RdRp before RNA substrate
[8] = target: SARS-CoV-2 RdRp holoenzyme (nsp12, nsp7, nsp8) (Severe acute respiratory syndrome coronavirus 2, UniProt P0DTD1); assay: biochemical; assay type: biochemical; conditions: for Inhibition of RNA extension by RdRp: 1 mM inhibitor pre-incubated with RdRp before RNA substrate (Figure 3A); for IC50: RdRp pre-incubated with inhibitor, then RNA substrate and ATP added, read-out: IC50 for inhibition of RdRp activity (RNA extension)
[9] = target: T1, SARS-CoV-2 RdRp; conditions: cited from earlier work
[10] = target: T1, SARS-CoV-2 RdRp; set-up: method as in PMID 33674802; conditions: interferes with template and primer RNA binding; cited from earlier work
[11] = Severe acute respiratory syndrome coronavirus 2, Vero C1008, Vero E6, vs DMSO-treated control, read-out: Δlog10(TCID50) SARS-CoV-2
[12] = African green monkey (Chlorocebus aethiops)
[13] = Severe acute respiratory syndrome coronavirus 2, Vero C1008, 96 h, read-out: Δlog10(RNA), logarithmic change in the SARS-CoV-2 RNA levels
[14] = concentration reducing the cell number by 50%, MTT

Compound | CD50 ± SD MDCK [1] [µM] | IC50 ([4]; MDCK) [µM] | log reduction at 50 µM ([4]; at 50 µM, MDCK cells) | CD50 ± SD Vero E6 [5, 12] [µM] | log reduction at 50 µM [6, 13] | Inhibition of RNA extension by RdRp [8] | log reduction at 50 µM [3, 11] | Anti-SARS-CoV-2 activity grade [6] | further results
CC(C)(C)c1ccc(-c2cc3cn(C4C=CC(O)C4)c(=O)nc3[nH]2)cc1 (centres unmarked) [Compound 2, 1-(4’-hydroxy-2’-cyclopenten-1-yl)-6-(4-tert-butylphenyl)-3H-pyrrolo [2,3-d]-pyrimidine-2-one] | 68 ± 5 | ~1 | 1.5 | 150 ± 15 | 0.3 | – | – | – | EC50 [2]: 53 µM; log reduction at 20 µM [3, 11]: 0.5; SI (selectivity index), the ratio of CD50 to IC50 ([4]; MDCK cells): 49.60; IC50 [4]: 1.37 ± 0.28 µM
CCCCCc1ccc(-c2cc3cn([C@@H]4O[C@H](CO)[C@@H](O)[C@H]4O)c(=O)nc3o2)cc1 [Compound 4, 3-(β-D-Ribofuranosyl)-6-(4-pentylphenyl)-3H-furano [2,3-d]-pyrimidine-2-on] | 652 ± 77 | > 25 | 1 | >500 | 0.2 | – | – | – | log reduction at 20 µM [3, 11]: 0.5
CCCCCc1ccc(-c2cc3cn(C4C=CC(O)C4)c(=O)nc3[nH]2)cc1 (centres unmarked) [Compound 1, 1-(4’-hydroxy-2’-cyclopenten-1-yl)-6-(4-pentylphenyl)-3H-pyrrolo [2,3-d]-pyrimidine-2-one] | 89 ± 12 | > 50 | 0 | 153 ± 5 | – | completely blocked RNA synthesis | – | – | EC50 [2]: 21 µM; Inhibition of RNA binding by RdRp, EMSA [7]: fully prevented RNA binding; log reduction at 20 µM [3, 11]: 1; Decrease of the TCID50 value ([3]; summary of Table 1): ~ 10 fold; IC50 [8]: 44 ± 2 µM; log reduction at 10 µM ([6]; Severe acute respiratory syndrome coronavirus 2, Vero C1008, 96 h, measured at 10 µM (footnote *), Vero E6, vs DMSO, read-out: Δlog10(RNA), logarithmic change in the SARS-CoV-2 RNA levels): 1.5; Decrease of the amount of viral RNA ([6]; summary of Table 1): > 10 fold
CCCCCc1ccc(-c2cc3cn(COCCO)c(=O)[nH]c-3n2)cc1 [Compound 7, 3-((2-(Hydroxy)ethoxy)methyl)-6-(4-pentylphenyl)-3H-pyrrolo [2,3-d]-pyrimidine-2-one] | 74 ± 12 | > 50 | 0.5 | 240 ± 19 | 0.4 | – | 0 | – | Effect on SARS-CoV-2 infectivity, TCID50 in Vero cells ([3]; summary of Table 1): inactive; Effect on SARS-CoV-2 viral RNA titer ([6]; summary of Table 1): inactive
CC(C)(C)c1ccc(Nc2cn(C3C=CC(O)C3)c(=O)n(C3C=CC(O)C3)c2=O)cc1 (centres unmarked) [Compound 9] | 392 ± 9 | > 50 | 0.5 | 220 ± 23 | 0.8 | weaker effects | 0.5 | – | –
CC(C)(C)c1ccc(-c2cc3cn(COCCO)c(=O)[nH]c-3n2)cc1 [Compound 14, 3-((2-(Hydroxy)ethoxy)methyl)-6-(4-tert-butylphenyl)-3H-pyrrolo [2,3-d]-pyrimidine-2-one] | 74 ± 18 | ~1 | 1.5 | 310 ± 24 | 0.4 | completely blocked RNA synthesis | 1 | Moderate activity | Inhibition of RNA binding by RdRp, EMSA [7]: fully prevented RNA binding; Effect on SARS-CoV-2 infectivity, TCID50 in Vero cells ([3]; summary of Table 1): stronger effects; SI (selectivity index), the ratio of CD50 to IC50 ([4]; MDCK cells): 110.61; IC50 [4]: 0.67 ± 0.12 µM; IC50 [8]: 244 ± 58 µM; Effect on SARS-CoV-2 viral RNA titer ([6]; summary of Table 1): only weakly affected
O=C(N[C@@H](Cc1ccc(O)cc1)C(=O)O)c1cc(-c2ccccc2)c(=O)n2c1sc1ccc(OC3CCCCC3)cc12 [HeE1-2Tyr] | – | – | – | – | – | – | – | – | IC50 [9]: 27 µM
CCOC(=O)C1=C[C@@H](OC(CC)CC)[C@H](NC(C)=O)[C@@H](N)C1 [Oseltamivir, reference compound] | 500 ± 82 | 0.61 ± 0.15 | – | – | – | – | – | – | SI (selectivity index), the ratio of CD50 to IC50 ([4]; MDCK cells): 820
CC(C)(C)c1ccc(Nc2cn(C3C=CC(O)C3)c(=O)[nH]c2=O)cc1 (centres unmarked) [Compound 8] | 552 ± 35 | > 50 | 0.5 | >500 | 1.1 | – | 0.5 | Moderate activity | Effect on SARS-CoV-2 infectivity, TCID50 in Vero cells ([3]; summary of Table 1): weak protection; Effect on SARS-CoV-2 viral RNA titer ([6]; summary of Table 1): visible reduction
1-(β-D-Ribofuranosyl)-5-(4-tert-butylphenoxy)-uracil [Compound 13] | >1000 | – | – | – | – | – | – | Moderate activity | Δlog10(TCID50) Influenza Virus ([4]; at 50 µM, MDCK cells): 0.5; IC50 [4]: > 50 µM; CD50 ± SD Vero E6 [5, 14]: >500 µM; Δlog10(RNA), logarithmic change in the SARS-CoV-2 RNA levels [6]: 0.8
CCCCCc1ccc(-c2cc3cn(COCCO)c(=O)nc3o2)cc1 [Compound 5, 3-((2-(Hydroxy)ethoxy)methyl)-6-(4-pentylphenyl)-3H-furano [2,3-d]-pyrimidine-2-on] | 686 ± 46 | ~1 | 1.5 | 400 ± 98 | 0.3 | completely blocked RNA synthesis | 1 | Moderate activity | Effect on SARS-CoV-2 infectivity, TCID50 in Vero cells ([3]; summary of Table 1): stronger effects; IC50 [4]: 1.34 ± 0.33 µM; IC50 [8]: 72 ± 20 µM; Effect on SARS-CoV-2 viral RNA titer ([6]; summary of Table 1): only weakly affected
Cc1c(C)c2c(c3c1CC[n+]1ccc(/C=C4\Sc5ccccc5N4C)cc1-3)-c1cccc(/C=C3\Sc4ccccc4N3C)[n+]1CC2 [PR673] | – | – | – | – | – | – | – | – | IC50 [9]: ~4 µM
Cc1ccc(C(=O)Nc2ccc(S(=O)(=O)O)c3cc(S(=O)(=O)O)cc(S(=O)(=O)O)c23)cc1NC(=O)c1cccc(NC(=O)Nc2cccc(C(=O)Nc3cc(C(=O)Nc4ccc(S(=O)(=O)O)c5cc(S(=O)(=O)O)cc(S(=O)(=O)O)c45)ccc3C)c2)c1 [suramin] | – | – | – | – | – | – | – | – | Affinity of interaction with RdRp [10]: micromolar affinity
CC(C)(C)c1ccc(Oc2cn(C3C=CC(O)C3)c(=O)n(C3C=CC(O)C3)c2=O)cc1 (centres unmarked) [Compound 10] | 418 ± 42 | > 50 | -0.5 | 500 ± 30 | 0.8 | completely blocked RNA synthesis | – | – | Inhibition of RNA binding by RdRp, EMSA [7]: fully prevented RNA binding; log reduction at 2 µM ([3]; Severe acute respiratory syndrome coronavirus 2, Vero C1008, measured at 2 µM (footnote ***), Vero E6, vs DMSO-treated control, read-out: Δlog10(TCID50) SARS-CoV-2): 0.5
O=c1nc(NO)ccn1[C@@H]1O[C@H](CO)[C@@H](O)[C@H]1O [NHC, N4-hydroxycitidine, reference compound] | – | – | – | – | – | – | – | – | CD50 ± SD Vero E6 [5, 14]: 80 ± 18 µM; Δlog10(RNA), logarithmic change in the SARS-CoV-2 RNA levels ([6]; measured at 10 µM (footnote *), Vero E6, vs DMSO): 3.9 *
CCCCCc1ccc(-c2cc3cn(C4C=CC(O)C4)c(=O)nc3o2)cc1 (centres unmarked) [Compound 3] | 442 ± 21 | > 50 | 0 | >500 | 1.3 | completely blocked RNA synthesis | – | Moderate activity | log reduction at 20 µM [3, 11]: 0.5
CC(C)(C)c1ccc(Oc2cn(C3C=CC(O)C3)c(=O)[nH]c2=O)cc1 (centres unmarked) [Compound 11] | >1000 | > 50 | -0.5 | 440 ± 6 | 0.7 | – | – | Moderate activity | log reduction at 20 µM [3, 11]: 1
CCCCCc1ccc(-c2cc3cn([C@@H]4O[C@H](CO)[C@@H](O)[C@H]4O)c(=O)[nH]c-3n2)cc1 [Compound 6, 3-(β-D-ribofuranosyl)-6-(4-pentylphenyl)-3H-pyrrolo [2,3-d]-pyrimidine-2-on] | 614 ± 52 | > 50 | 0 | 450 ± 166 | 0.2 | – | 0 | – | Effect on SARS-CoV-2 infectivity, TCID50 in Vero cells ([3]; summary of Table 1): inactive; Effect on SARS-CoV-2 viral RNA titer ([6]; summary of Table 1): inactive
